Results as given in ChEMBL document CHEMBL5518206, “Hit-to-Lead Identification and Validation of a Triaromatic Pleuromutilin Antibiotic Candidate” (J Med Chem, 2024).
pIC50: −log10 of the molar value. In brackets after ≈: the same amount, converted by molar mass.

Experiments:
[1] = Solubility of the compound in Dulbecco's PBS at 20 degree C measured after 24 hrs
[2] = Inhibition of P-gp efflux in MDCKII-MDR1 cells using calcein-AM as substrate assessed as intracellular calcein fluorescence preincubated for 15 mins followed by substrate addition and measured by fluorescence based assay; format: cell-based; settings: Canis lupus familiaris
Staphylococcus aureus [3] = test: Antibacterial activity against multi drug-resistant Staphylococcus aureus USA300 FPR3757 assessed as inhibition of visible growth incubated for 20 to 24 hrs by microbroth serial dilution assay; format: functional; settings: time 20-24 hrs, read-out: MIC100
Streptococcus pneumoniae = test: Antibacterial activity against Streptococcus pneumoniae assessed as inhibition of visible growth incubated for 20 to 24 hrs by microbroth serial dilution assay; format: functional; settings: time 20-24 hrs, read-out: MIC100
Enterococcus faecalis = test: Antibacterial activity against Enterococcus faecalis assessed as inhibition of visible growth incubated for 20 to 24 hrs by microbroth serial dilution assay; format: functional; settings: time 20-24 hrs, read-out: MIC100
Enterococcus faecium [4] = test: Antibacterial activity against Vancomycin-resistant Enterococcus faecium assessed as inhibition of visible growth incubated for 20 to 24 hrs by microbroth serial dilution assay; format: functional; settings: time 20-24 hrs, read-out: MIC100
Enterococcus faecium [5] = test: Antibacterial activity against Linezolid/Ampicillin/ciprofloxacin/Vancomycin-resistant Enterococcus faecium assessed as inhibition of visible growth incubated for 20 to 24 hrs by microbroth serial dilution assay; format: functional; settings: time 20-24 hrs, read-out: MIC100
MDCK-MDR1 = test: Cytotoxicity against MDCKII-MDR1 cells assessed as cell viability at 100 uM measured by MTT assay; format: toxicity, cell-based, Canis lupus familiaris; settings: dog, mdck-mdr1, 100 µM
Staphylococcus aureus [6] = test: (§1) Induction of resistant development in -(6-(6-(Piperazin-1-y1)-9H-purin-9-y)methyl)pyridin-3-y1)-1H-1,2,3-triazol-1-yl)-22-deoxypleuromutilin-16 passages resistance developed Staphylococcus aureus USA300 FPR3757 assessed as fold increase in MIC at sub-MIC concentration measured after 5 passages with conjugate by serial passage assay; format: functional
Staphylococcus aureus [7] = test: as §1, with “after 9” for “after 5”; format: functional
Staphylococcus aureus [8] = test: as §1, with “after 13” for “after 5”; format: functional
Staphylococcus aureus [9] = test: as §1, with “after 18” for “after 5”; format: functional
Staphylococcus aureus [10] = test: as §1, with “after 22” for “after 5”; format: functional
Staphylococcus aureus [11] = test: as §1, with “after 25” for “after 5”; format: functional
Staphylococcus aureus [12] = test: as §1, with “after 28” for “after 5”; format: functional
Staphylococcus aureus [13] = test: Induction of resistant development in lefamulin 5 passages resistance developed Staphylococcus aureus USA300 FPR3757 assessed as fold increase in MIC at sub-MIC concentration measured after 5 passages with conjugate by serial passage assay; format: functional
Staphylococcus aureus [14] = test: Induction of resistant development in lefamulin 5 passages resistance developed Staphylococcus aureus USA300 FPR3757 assessed as fold increase in MIC at sub-MIC concentration measured after 9 passages with conjugate by serial passage assay; format: functional
Staphylococcus aureus [15] = test: Induction of resistant development in lefamulin 5 passages resistance developed Staphylococcus aureus USA300 FPR3757 assessed as fold increase in MIC at sub-MIC concentration measured after 13 passages with conjugate by serial passage assay; format: functional
Staphylococcus aureus [16] = test: Induction of resistant development in lefamulin 5 passages resistance developed Staphylococcus aureus USA300 FPR3757 assessed as fold increase in MIC at sub-MIC concentration measured after 18 passages with conjugate by serial passage assay; format: functional
Staphylococcus aureus [17] = test: Induction of resistant development in lefamulin 5 passages resistance developed Staphylococcus aureus USA300 FPR3757 assessed as fold increase in MIC at sub-MIC concentration measured after 22 passages with conjugate by serial passage assay; format: functional
Staphylococcus aureus [18] = test: Induction of resistant development in lefamulin 5 passages resistance developed Staphylococcus aureus USA300 FPR3757 assessed as fold increase in MIC at sub-MIC concentration measured after 25 passages with conjugate by serial passage assay; format: functional
Staphylococcus aureus [19] = test: Induction of resistant development in lefamulin 5 passages resistance developed Staphylococcus aureus USA300 FPR3757 assessed as fold increase in MIC at sub-MIC concentration measured after 28 passages with conjugate by serial passage assay; format: functional
Staphylococcus aureus [20] = test: Induction of resistant development in linezolid 5 passages resistance developed Staphylococcus aureus USA300 FPR3757 assessed as fold increase in MIC at sub-MIC concentration measured after 5 passages with conjugate by serial passage assay; format: functional
Staphylococcus aureus [21] = test: Induction of resistant development in linezolid 5 passages resistance developed Staphylococcus aureus USA300 FPR3757 assessed as fold increase in MIC at sub-MIC concentration measured after 9 passages with conjugate by serial passage assay; format: functional
Staphylococcus aureus [22] = test: Induction of resistant development in linezolid 5 passages resistance developed Staphylococcus aureus USA300 FPR3757 assessed as fold increase in MIC at sub-MIC concentration measured after 13 passages with conjugate by serial passage assay; format: functional
Staphylococcus aureus [23] = test: Induction of resistant development in linezolid 5 passages resistance developed Staphylococcus aureus USA300 FPR3757 assessed as fold increase in MIC at sub-MIC concentration measured after 18 passages with conjugate by serial passage assay; format: functional
Staphylococcus aureus [24] = test: Induction of resistant development in linezolid 5 passages resistance developed Staphylococcus aureus USA300 FPR3757 assessed as fold increase in MIC at sub-MIC concentration measured after 22 passages with conjugate by serial passage assay; format: functional
Staphylococcus aureus [25] = test: Induction of resistant development in linezolid 5 passages resistance developed Staphylococcus aureus USA300 FPR3757 assessed as fold increase in MIC at sub-MIC concentration measured after 25 passages with conjugate by serial passage assay; format: functional
Staphylococcus aureus [26] = test: Induction of resistant development in linezolid 5 passages resistance developed Staphylococcus aureus USA300 FPR3757 assessed as fold increase in MIC at sub-MIC concentration measured after 28 passages with conjugate by serial passage assay; format: functional

C=C[C@]1(C)C[C@@H](OC(=O)Cn2cc(-c3ccc(Cn4cnc5c(N)nc(N)nc54)cc3)nn2)[C@]2(C)[C@H](C)CC[C@]3(CCC(=O)[C@H]32)[C@@H](C)[C@@H]1O
solubility at 24 h [1]: 1.9 µM (≈ 1.27 µg/mL)
pIC50 [2]: < 4.00
MIC (Staphylococcus aureus [3]): 0.06 µg/mL (≈ 0.0898 µM)
MIC (Streptococcus pneumoniae): 0.5 µg/mL (≈ 0.749 µM)
MIC (Enterococcus faecalis): 0.25 µg/mL (≈ 0.374 µM)
MIC (Enterococcus faecium [4]): 0.12 µg/mL (≈ 0.18 µM)
MIC (Enterococcus faecium [5]): 0.12 µg/mL (≈ 0.18 µM)
Activity (MDCK-MDR1): Non-Toxic

C=C[C@]1(C)C[C@@H](OC(=O)Cn2cc(-c3ccc([C@@H](C)n4cnc5c(N)ncnc54)cc3)nn2)[C@]2(C)[C@H](C)CC[C@]3(CCC(=O)[C@H]32)[C@@H](C)[C@@H]1O
solubility at 24 h [1]: 2.6 µM (≈ 1.73 µg/mL)
pIC50 [2]: 4.30
MIC (Staphylococcus aureus [3]): 0.12 µg/mL (≈ 0.18 µM)
MIC (Streptococcus pneumoniae): 0.25 µg/mL (≈ 0.375 µM)
MIC (Enterococcus faecalis): 0.5 µg/mL (≈ 0.75 µM)
MIC (Enterococcus faecium [4]): 0.25 µg/mL (≈ 0.375 µM)
MIC (Enterococcus faecium [5]): 0.25 µg/mL (≈ 0.375 µM)

CC(=O)NC[C@H]1CN(c2ccc(N3CCOCC3)c(F)c2)C(=O)O1
fold change (FC) (Staphylococcus aureus [6]): 8
fold change (FC) (Staphylococcus aureus [7]): 4
fold change (FC) (Staphylococcus aureus [8]): 4
fold change (FC) (Staphylococcus aureus [9]): 4
fold change (FC) (Staphylococcus aureus [10]): 8
fold change (FC) (Staphylococcus aureus [11]): 8
fold change (FC) (Staphylococcus aureus [12]): 16
fold change (FC) (Staphylococcus aureus [13]): 8
fold change (FC) (Staphylococcus aureus [14]): 2
fold change (FC) (Staphylococcus aureus [15]): 4
fold change (FC) (Staphylococcus aureus [16]): 2
fold change (FC) (Staphylococcus aureus [17]): 2
fold change (FC) (Staphylococcus aureus [18]): 2
fold change (FC) (Staphylococcus aureus [19]): 2
fold change (FC) (Staphylococcus aureus [20]): 4
fold change (FC) (Staphylococcus aureus [21]): 4
fold change (FC) (Staphylococcus aureus [22]): 8
fold change (FC) (Staphylococcus aureus [23]): 16
fold change (FC) (Staphylococcus aureus [24]): 32
fold change (FC) (Staphylococcus aureus [25]): 32
fold change (FC) (Staphylococcus aureus [26]): 32

C=C[C@]1(C)C[C@@H](OC(=O)Cn2cc(-c3ccc([C@@H](C)n4cnc5c(N6CCNCC6)ncnc54)cc3)nn2)[C@]2(C)[C@H](C)CC[C@]3(CCC(=O)[C@H]32)[C@@H](C)[C@@H]1O
solubility at 24 h [1]: 10 µM (≈ 7.36 µg/mL)
pIC50 [2]: 5.15
MIC (Staphylococcus aureus [3]): 0.25 µg/mL (≈ 0.34 µM)
MIC (Streptococcus pneumoniae): 0.25 µg/mL (≈ 0.34 µM)
MIC (Enterococcus faecalis): 0.5 µg/mL (≈ 0.679 µM)
MIC (Enterococcus faecium [4]): 0.25 µg/mL (≈ 0.34 µM)
MIC (Enterococcus faecium [5]): 0.25 µg/mL (≈ 0.34 µM)

C=C[C@]1(C)C[C@@H](OC(=O)Cn2cc(-c3ccc(Cn4cnc5c(N6CCNCC6)ncnc54)cc3)nn2)[C@]2(C)[C@H](C)CC[C@]3(CCC(=O)[C@H]32)[C@@H](C)[C@@H]1O
solubility at 24 h [1]: 31 µM (≈ 22.4 µg/mL)
pIC50 [2]: 5.00
MIC (Staphylococcus aureus [3]): 0.25 µg/mL (≈ 0.346 µM)
MIC (Streptococcus pneumoniae): 0.25 µg/mL (≈ 0.346 µM)
MIC (Enterococcus faecalis): 0.25 µg/mL (≈ 0.346 µM)
MIC (Enterococcus faecium [4]): 0.06 µg/mL (≈ 0.0831 µM)
MIC (Enterococcus faecium [5]): 0.12 µg/mL (≈ 0.166 µM)

C=C[C@]1(C)C[C@@H](OC(=O)Cn2cc(-c3ccc(Cn4cnc5c(N)ncnc54)c(OC)c3)nn2)[C@]2(C)[C@H](C)CC[C@]3(CCC(=O)[C@H]32)[C@@H](C)[C@@H]1O
solubility at 24 h [1]: 2.2 µM (≈ 1.5 µg/mL)
pIC50 [2]: 4.34
MIC (Staphylococcus aureus [3]): 0.06 µg/mL (≈ 0.0879 µM)
MIC (Streptococcus pneumoniae): 0.25 µg/mL (≈ 0.366 µM)
MIC (Enterococcus faecalis): 0.25 µg/mL (≈ 0.366 µM)
MIC (Enterococcus faecium [4]): 0.12 µg/mL (≈ 0.176 µM)
MIC (Enterococcus faecium [5]): 0.12 µg/mL (≈ 0.176 µM)
